# In patent US20180303853A1, “COMPOSITIONS AND METHODS FOR TREATING BACTERIAL INFECTIONS USING CEFTAROLINE” (priority 2017, published 2018):
# Tests used:
# Streptococcus agalactiae = test: Phase 3 cSSSI studies, clinical cure by infecting pathogen; format: in vivo; settings: ME patients
# Experimental: (§1) A total of 1396 adults with clinically documented complicated skin and skin structure infections (cSSSI) were enrolled in two randomized, multi-center, multinational, double-blind, studies comparing 600 mg ceftaroline fosamil administered intravenously over 1 hour every 12 hours to vancomycin plus aztreonam [1 g vancomycin administered intravenously over 1 hour followed by 1 g aztreonam administered intravenously over 1 hour every 12 hours]. Patients with cSSSI (deep/extensive cellulitis, a major abscess, a wound infection [surgical or traumatic], infected insect bites, burns or ulcers, lower extremity infection in patients with diabetes mellitus or peripheral vascular disease), were enrolled in the studies. Treatment duration was […] days. A switch to oral therapy was not allowed. The Modified Intent-to-Treat (MITT) population included all patients who received any amount of study drug according to their randomized treatment group.
# (§2) The primary efficacy endpoint was clinical response at the Test of Cure (TOC) visit in the co-primary CE and MITT populations (Table 2). […] In a subgroup analysis (CE population), the comparative clinical cure rates between the ceftaroline group and the vancomycin plus aztreonam group were not affected by age, gender, race, ethnicity, or weight.
# Klebsiella oxytoca = test: as above; format: in vivo; settings: ME patients
# Experimental: as §1, §2
# [1] = tested on: Streptococcus dysgalactiae; test: as above; format: in vivo; settings: ME patients
# Experimental: as §1, §2
# Klebsiella pneumoniae [2] = test: as above; format: in vivo; settings: ME patients
# Experimental: as §1, §2
# Escherichia coli [3] = test: as above; format: in vivo; settings: ME patients
# Experimental: as §1, §2
# Morganella morganii = test: as above; format: in vivo; settings: ME patients
# Experimental: as §1, §2
# Staphylococcus aureus [4] = test: as above; format: in vivo; settings: ME patients
# Experimental: as §1, §2
# Streptococcus pyogenes = test: as above; format: in vivo; settings: ME patients
# Experimental: as §1, §2
# [5] = Four pooled controlled comparative Phase 3 clinical studies (two cSSSI, two CABP), safety; settings: pooled Phase 3 studies
# Experimental: Ceftaroline fosamil was evaluated in four controlled comparative Phase 3 clinical studies (two in cSSSI and two in CABP).
# [6] = tested on: MSSA (methicillin-susceptible); test: Phase 3 cSSSI studies, clinical cure by infecting pathogen; format: in vivo, Staphylococcus aureus; settings: ME patients
# Experimental: as §1, §2
# [7] = tested on: Streptococcus anginosus group; test: as above; format: in vivo, S. anginosus, S. intermedius, and S. constellatus; settings: ME patients
# Experimental: as §1, §2
# [8] = tested on: complicated skin and skin structure infections (cSSSI); test: Two Phase 3 studies in cSSSI, clinical cure at TOC; format: in vivo, human; settings: for Treatment Difference (2-sided 95% CI): vs Vancomycin/Aztreonam
# Experimental: as §1, §2
# [9] = Excretion after single IV dose of radiolabeled ceftaroline fosamil in healthy male adults; format: in vivo, human; settings: single 600 mg IV dose of radiolabeled ceftaroline fosamil
# Experimental: Following administration of a single 600 mg IV dose of radiolabeled ceftaroline fosamil to healthy male adults, approximately 87% of radioactivity was recovered in urine and 6% in feces. The majority of the radioactivity (˜90%) was recovered within 48 hours. Of the radioactivity recovered in urine, approximately 64% was excreted as ceftaroline and approximately 2% as ceftaroline-M-1.
# [10] = tested on: MDRSP (multidrug-resistant); format: in vivo, Streptococcus pneumoniae; settings: CABP, ME patients
# Experimental: (§3) In both treatment groups of CABP Study 1, two doses of oral clarithromycin (500 mg q12 h), were administered as adjunctive therapy starting on Study Day 1. No adjunctive macrolide therapy was used in CABP Study 2. Patients with new or progressive pulmonary infiltrate(s) on chest radiography and clinical signs and symptoms consistent with CABP with the need for hospitalization and IV therapy were enrolled in the studies. Treatment duration was 5 to 7 days. A switch to oral therapy was not allowed. The Modified Intent-to-Treat Efficacy (MITTE) population, included all patients who received any amount of study drug according to their randomized, treatment group and were in PORT (Pneumonia Outcomes Research Team) Risk Class III or IV.
# (§4) The primary efficacy endpoint was the clinical response at the Test of Cure (TOC) visit in the co-primary Ce and MITTE populations (Table 4).
# [11] = tested on: CYP1A2, CYP2B6, CYP2C8, CYP2C9, CYP2CI9, or CYP3A4/5; test: CYP induction in human hepatocytes; format: in vitro ADME; settings: human hepatocytes
# [12] = tested on: CYP1A1, CYP1A2, CYP2A6, CYP2B6, CYP2C8, CYP2C9, CYP2C19, CYP2D6, CYP2E1 and CYP3A4; test: Cytochrome P450 inhibition in human liver microsomes; format: in vitro ADME; settings: human liver microsomes
# [13] = tested on: Community-Acquired Bacterial Pneumonia (CABP); test: Two Phase 3 studies in CABP, clinical cure at TOC (single and integrated/combined); format: in vivo, human; settings: for Treatment Difference (2-sided 95% CI): vs Ceftriaxone
# Experimental: as §3, §4
# Streptococcus pneumoniae = test: Integrated Phase 3 CABP studies, clinical cure by infecting pathogen; format: in vivo; settings: ME patients
# Experimental: as §3, §4
# Klebsiella pneumoniae [14] = test: as above; format: in vivo; settings: ME patients
# Experimental: as §3, §4
# Escherichia coli [15] = test: as above; format: in vivo; settings: ME patients
# Experimental: as §3, §4
# Haemophilus influenzae = test: as above; format: in vivo; settings: ME patients
# Experimental: as §3, §4
# Staphylococcus aureus [16] = test: as above; format: in vivo; settings: ME patients
# Experimental: as §3, §4
# [17] = Aqueous solubility of ceftaroline fosamil
# [18] = tested on: MRSA (methicillin-resistant); format: in vivo, Staphylococcus aureus; settings: cSSSI, ME patients
# Experimental: as §1, §2
# [19] = Pharmacokinetics of ceftaroline after IV infusion of ceftaroline fosamil in adults with normal renal function
# [20] = tested on: MSSA (methicillin-susceptible); test: Integrated Phase 3 CABP studies, clinical cure by infecting pathogen; format: in vivo, Staphylococcus aureus; settings: ME patients
# Experimental: as §3, §4
# [21] = tested on: complicated skin and skin structure infections (cSSSI); test: Two Phase 3 studies in cSSSI, clinical cure at TOC; format: in vivo, human; settings: Integrated Studies, CE population, 5 to 14 days of therapy
compound,measurement,setting,value
"CCO/N=C(\C(=O)N[C@@H]1C(=O)N2C(C(=O)[O-])=C(Sc3nc(-c4cc[n+](C)cc4)cs3)CS[C@H]12)c1nsc(NP(=O)(O)O)n1 [Ceftaroline fosamil, (6R,7R)-7-{(2Z)-2-(ethoxyimino)-2-[5-(phosphonoamino)-1,2,4-thiadiazol-3-yl]acetamido}-3-{[4-(1-methylpyridin-1-ium-4-yl)-1,3-thiazol-2-yl]sulfanyl}-8-oxo-5-thia-1-azabicyclo[4.2.0]oct-2-ene-2-carboxylate]",Clinical cure rate by infecting pathogen,Streptococcus agalactiae,21/22 (95.5%)
same,Clinical cure rate by infecting pathogen,Klebsiella oxytoca,10/12 (83.3%)
same,Clinical cure rate by infecting pathogen,[1],13/13 (100%)
same,Clinical cure rate by infecting pathogen,Klebsiella pneumoniae [2],17/18 (94.4%)
same,Clinical cure rate by infecting pathogen,Escherichia coli [3],20/21 (95.2%)
same,Clinical cure rate by infecting pathogen,Morganella morganii,11/12 (91.7%)
same,Clinical cure rate by infecting pathogen,Staphylococcus aureus [4],352/378 (93.1%)
same,Clinical cure rate by infecting pathogen,Streptococcus pyogenes,56/56 (100%)
same,Adverse reaction: Constipation,[5],2%
same,Adverse reaction: Diarrhea,[5],5%
same,Adverse reaction: Headache,[5],4%
same,Adverse reaction: Hypokalemia,[5],2%
same,Adverse reaction: Increased transaminases,[5],2%
same,Adverse reaction: Insomnia,[5],3%
same,Adverse reaction: Nausea,[5],4%
same,Adverse reaction: Phlebitis,[5],2%
same,Adverse reaction: Pruritus,[5],2%
same,Adverse reaction: Rash,[5],3%
same,Adverse reaction: Vomiting,[5],2%
same,Serious adverse events,[5],8%
same,discontinuation due to hypersensitivity (most common adverse event leading to discontinuation),[5],0.3%
same,treatment discontinuations due to adverse events,[5],4%
same,Clinical cure rate by infecting pathogen,[6],212/228 (93.0%)
same,Clinical cure rate by infecting pathogen,[7],12/13 (92.3%)
same,Clinical cure rate at TOC,"[8]; Integrated Studies, MITT population",595/693 (85.9) %
same,Clinical cure rate at TOC,"[8]; cSSSI Study 1, CE population",288/316 (91.1) %
same,Clinical cure rate at TOC,"[8]; cSSSI Study 1, MITT population",304/351 (86.6) %
same,Clinical cure rate at TOC,"[8]; cSSSI Study 2, CE population",271/294 (92.2) %
same,Clinical cure rate at TOC,"[8]; cSSSI Study 2, MITT population",291/342 (85.1) %
same,Treatment Difference (2-sided 95% CI),"[8]; Integrated Studies, CE","−1.1 (−4.2, 2.0)"
same,Treatment Difference (2-sided 95% CI),"[8]; Integrated Studies, MITT","0.3 (−3.4, 4.0)"
same,Treatment Difference (2-sided 95% CI),"[8]; cSSSI Study 1, CE","−2.2 (−6.6, 2.1)"
same,Treatment Difference (2-sided 95% CI),"[8]; cSSSI Study 1, MITT","1.0 (−4.2, 6.2)"
same,radioactivity recovered in feces,[9],~6%
same,radioactivity recovered in urine,[9],approximately 87%
same,radioactivity recovered within 48 hours,[9],~90%
same,Clinical cure rate by infecting pathogen,[10],4/4 (100%)
same,induction of CYP isoenzymes,[11],not inducers
same,inhibition of major cytochrome P450 isoenzymes,[12],neither ceftaroline fosamil nor ceftaroline inhibits
same,Clinical cure rate at TOC,"[13]; CABP Study 1, CE population",194/224 (86.6%)
same,Clinical cure rate at TOC,"[13]; CABP Study 1, MITTE population",244/291 (83.8%)
same,Clinical cure rate at TOC,"[13]; CABP Study 2, CE population",193/235 (82.1%)
same,Clinical cure rate at TOC,"[13]; CABP Study 2, MITTE population",235/289 (81.3%)
same,Clinical cure rate at TOC,"[13]; Integrated Studies, CE population, 5 to 7 days of therapy",387/459 (84.3%)
same,Clinical cure rate at TOC,"[13]; Integrated Studies, MITTE population",479/580 (82.6%)
same,Treatment Difference (2-sided 95% CI),"[13]; CABP Study 1, CE","8.4 (1.4, 15.4)"
same,Treatment Difference (2-sided 95% CI),"[13]; CABP Study 1, MITTE","6.2 (−0.2, 12.6)"
same,Treatment Difference (2-sided 95% CI),"[13]; CABP Study 2, CE","4.9 (−2.5, 12.5)"
same,Treatment Difference (2-sided 95% CI),"[13]; CABP Study 2, MITTE","5.9 (−1.0, 12.7)"
same,Treatment Difference (2-sided 95% CI),"[13]; Integrated Studies, CE","6.7 (1.6, 11.8)"
same,Treatment Difference (2-sided 95% CI),"[13]; Integrated Studies, MITTE","6.0 (1.4, 10.7)"
same,Clinical cure rate by infecting pathogen,Streptococcus pneumoniae,54/63 (85.7%)
same,Clinical cure rate by infecting pathogen,Klebsiella pneumoniae [14],13/13 (100%)
same,Clinical cure rate by infecting pathogen,Escherichia coli [15],10/12 (83.3%)
same,Clinical cure rate by infecting pathogen,Haemophilus influenzae,15/18 (83.3%)
same,Clinical cure rate by infecting pathogen,Staphylococcus aureus [16],18/25 (72.0%)
same,aqueous solubility,[17],8-30 mg per ml
same,Clinical cure rate by infecting pathogen,[18],142/152 (93.4%)
same,accumulation following multiple IV infusions,"[19]; 600 mg every 8 or 12 hours for up to 14 days, normal renal function",No appreciable accumulation
same,conversion of prodrug in plasma,[19]; appeared to be mediated by a phosphatase enzyme,rapidly converted into bioactive ceftaroline
same,Clinical cure rate by infecting pathogen,[20],18/25 (72.0%)
same,Clinical cure rate at TOC,[21],559/610 (91.6) %
